Results reported in patent US6355614B1, “Cyclic boroproline compounds” (Point Therapeutics, priority 1998, dated 2002).

Assay: Conformational equilibrium of open chain and cyclic forms in aqueous solution (from apparent Ki at equilibrium vs true Ki)
Type: physicochemical
Settings: at equilibrium at pH 7.0
Description: See FIG. 3 which is a diagram showing the structures of the open and cyclized forms of Xaa-boroPro inhibitors (conformational equilibrium of Xaa-boroproline inhibitors). The open, active, inhibitory chain species is favored at low pH while the cyclized structure is favored at neutral pH. The reaction is fully reversible: the open chain becomes predominant at low pH. The open chain to cyclic species reaction involves a trans to cis isomerization of the proline and the formation of a new N—B bond. […] G. Gutheil and W. W. Bachovchin, Separation of L-Pro-DL-boroPro into Its Component Diastereomers and Kinetic Analysis of Their Inhibition of Dipeptidyl Peptidase IV. A New Method for the Analysis of Slow, Tight-Binding Inhibition, Biochemistry 32, 8723-8731 (1993)).

Compound | fraction existing as the open chain, inhibitory species
O=C(C1CCCN1)N1CCCC1B(O)O (centres unmarked) [Pro-boroPro] | less than 1%
CC(C)C(N)C(=O)N1CCCC1B(O)O (centres unmarked) [Val-boroPro] | less than 0.1%
